Reference: paper PMC11342626, “Inhibition of IRP2-dependent reprogramming of iron metabolism suppresses tumor growth in colorectal cancer” (Cell Communication and Signaling : CCS, 2024)

Molecular target: T1, IRP2 (Homo sapiens, UniProt P48200)
T1 construct: gene IREB2; isolated IRP2 immobilised on CM5 chip
T1 sequence (P48200 1-963): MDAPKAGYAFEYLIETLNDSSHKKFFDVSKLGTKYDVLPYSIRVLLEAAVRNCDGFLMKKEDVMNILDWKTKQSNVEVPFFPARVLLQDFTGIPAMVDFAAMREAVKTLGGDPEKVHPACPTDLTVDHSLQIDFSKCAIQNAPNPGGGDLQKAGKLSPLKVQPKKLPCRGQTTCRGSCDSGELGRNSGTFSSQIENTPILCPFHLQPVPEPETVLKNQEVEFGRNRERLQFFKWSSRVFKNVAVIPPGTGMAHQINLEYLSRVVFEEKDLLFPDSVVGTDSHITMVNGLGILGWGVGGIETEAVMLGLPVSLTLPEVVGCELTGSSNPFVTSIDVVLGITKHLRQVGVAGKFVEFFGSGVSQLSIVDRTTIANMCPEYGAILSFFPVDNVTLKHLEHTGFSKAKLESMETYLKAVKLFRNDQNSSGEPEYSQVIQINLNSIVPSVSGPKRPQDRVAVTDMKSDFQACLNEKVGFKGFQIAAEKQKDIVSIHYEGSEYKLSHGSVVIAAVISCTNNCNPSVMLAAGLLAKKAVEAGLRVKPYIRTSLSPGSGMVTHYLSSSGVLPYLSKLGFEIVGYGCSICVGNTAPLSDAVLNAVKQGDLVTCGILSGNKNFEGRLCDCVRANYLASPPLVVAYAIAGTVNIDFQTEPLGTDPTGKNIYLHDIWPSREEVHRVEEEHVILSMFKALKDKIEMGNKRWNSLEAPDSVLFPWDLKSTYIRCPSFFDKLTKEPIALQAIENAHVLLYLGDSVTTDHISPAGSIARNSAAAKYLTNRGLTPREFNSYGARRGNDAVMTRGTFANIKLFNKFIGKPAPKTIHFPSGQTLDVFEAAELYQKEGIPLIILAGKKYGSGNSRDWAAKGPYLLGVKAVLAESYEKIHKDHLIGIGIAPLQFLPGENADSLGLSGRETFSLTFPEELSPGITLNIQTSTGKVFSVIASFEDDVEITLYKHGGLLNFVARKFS
Experiment: SPR (Biacore T200, CM5 chip, multi-cycle kinetics, […] fit)
Type: binding

| Kd [µM] | Structure (SMILES) |
| --- | --- |
| 45.9 | COc1ccc(S(=O)(=O)Nc2cccc(C)c2)cc1-c1cnc2[nH]ncc2c1 [KS-20073] |
| 4.1 | COc1ccc(S(=O)(=O)Nc2cccc(F)c2)cc1-c1cnc2[nH]nc(NC(C)=O)c2c1 [KS-20226] |
